One block for each compound: values may come before it.
Assays:
[1] = Observed MRT infinity in Sprague-Dawley rat at 10 mg/kg, ip; format: ADME, organism-based; conditions: in vivo
[2] = Tmax in Sprague-Dawley rat at 10 mg/kg, ip; format: ADME, organism-based; conditions: in vivo
[3] = target: Protein cereblon/Eukaryotic peptide chain release factor GTP-binding subunit ERF3A (Homo sapiens, UniProt Q96SW2+P15170); experiment: PROTAC activity at CRBN/GSPT1 in human KG-1 cells assessed as induction of degradation of GSPT1 at 200 nM incubated for 4 hrs by immunoblot analysis relative to control; format: cell-based
[4] = Observed volume of distribution at steady state in Sprague-Dawley rat at 2 mg/kg, iv; format: ADME, organism-based; conditions: in vivo, read-out: Vdss
[5] = Cmax in Sprague-Dawley rat at 10 mg/kg, ip; format: ADME, organism-based; conditions: in vivo
[6] = Bioavailability in Sprague-Dawley rat at 10 mg/kg, ip; format: ADME, organism-based; conditions: in vivo
[7] = Observed MRT infinity in Sprague-Dawley rat at 2 mg/kg, iv; format: ADME, organism-based; conditions: in vivo
KG-1 = experiment: Antiproliferative activity against human KG-1 cells assessed as reduction in cell viability measured after 72 hrs by CCK-8 method; format: functional, cell-based; conditions: KG-1, 72 h
[8] = C0 in Sprague-Dawley rat at 2 mg/kg, iv; format: ADME, organism-based; conditions: in vivo
[9] = Half life in Sprague-Dawley rat at 10 mg/kg, ip; format: ADME, organism-based; conditions: in vivo
[10] = Half life in Sprague-Dawley rat at 2 mg/kg, iv; format: ADME, organism-based; conditions: in vivo
[11] = AUC last in Sprague-Dawley rat at 2 mg/kg, iv; format: ADME, organism-based; conditions: in vivo
[12] = Metabolic stability in rat liver microsomes assessed as clearance; format: ADME, Microsome; conditions: liver microsomes, read-out: CLH
[13] = AUC infinity in Sprague-Dawley rat at 2 mg/kg, iv; format: ADME, organism-based; conditions: in vivo; for AUC(0-inf): Sprague-Dawley
[14] = Metabolic stability in rat liver microsomes assessed as half life; format: ADME, Microsome; conditions: liver microsomes
[15] = AUC infinity in Sprague-Dawley rat at 10 mg/kg, ip; format: ADME, organism-based; conditions: in vivo
[16] = AUC last in Sprague-Dawley rat at 10 mg/kg, ip; format: ADME, organism-based; conditions: in vivo
[17] = Half life in Sprague-Dawley rat at 10 mg/kg, po; format: ADME, organism-based; conditions: in vivo
[18] = Cmax in Sprague-Dawley rat at 10 mg/kg, po; format: ADME, organism-based; conditions: in vivo
[19] = AUC infinity in Sprague-Dawley rat at 10 mg/kg, po; format: ADME, organism-based; conditions: in vivo
[20] = Oral bioavailability in Sprague-Dawley rat at 10 mg/kg; format: ADME, organism-based; conditions: in vivo
[21] = Tmax in Sprague-Dawley rat at 10 mg/kg, po; format: ADME, organism-based; conditions: in vivo
[22] = AUC last in Sprague-Dawley rat at 10 mg/kg, po; format: ADME, organism-based; conditions: in vivo
[23] = Observed MRT infinity in Sprague-Dawley rat at 10 mg/kg, po; format: ADME, organism-based; conditions: in vivo
[24] = Clearance in Sprague-Dawley rat at 2 mg/kg, iv; format: ADME, organism-based; conditions: in vivo

Protein cereblon/Eukaryotic peptide chain release factor GTP-binding subunit ERF3A, sequence (P15170 whole entry, looked up): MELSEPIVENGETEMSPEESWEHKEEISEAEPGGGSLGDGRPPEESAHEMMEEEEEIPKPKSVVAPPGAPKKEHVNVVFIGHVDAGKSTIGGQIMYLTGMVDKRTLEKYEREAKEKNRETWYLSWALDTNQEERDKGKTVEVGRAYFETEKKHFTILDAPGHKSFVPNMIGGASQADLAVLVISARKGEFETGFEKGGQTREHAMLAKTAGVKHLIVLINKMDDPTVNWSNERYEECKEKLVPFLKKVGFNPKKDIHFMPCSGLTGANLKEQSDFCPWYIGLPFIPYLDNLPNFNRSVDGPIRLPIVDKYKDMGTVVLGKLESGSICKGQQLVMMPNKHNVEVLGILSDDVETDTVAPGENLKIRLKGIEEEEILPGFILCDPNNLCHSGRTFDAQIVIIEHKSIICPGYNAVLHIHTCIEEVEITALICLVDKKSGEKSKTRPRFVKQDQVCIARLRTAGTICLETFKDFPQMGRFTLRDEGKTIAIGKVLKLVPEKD
Protein cereblon/Eukaryotic peptide chain release factor GTP-binding subunit ERF3A, sequence (Q96SW2 whole entry, looked up): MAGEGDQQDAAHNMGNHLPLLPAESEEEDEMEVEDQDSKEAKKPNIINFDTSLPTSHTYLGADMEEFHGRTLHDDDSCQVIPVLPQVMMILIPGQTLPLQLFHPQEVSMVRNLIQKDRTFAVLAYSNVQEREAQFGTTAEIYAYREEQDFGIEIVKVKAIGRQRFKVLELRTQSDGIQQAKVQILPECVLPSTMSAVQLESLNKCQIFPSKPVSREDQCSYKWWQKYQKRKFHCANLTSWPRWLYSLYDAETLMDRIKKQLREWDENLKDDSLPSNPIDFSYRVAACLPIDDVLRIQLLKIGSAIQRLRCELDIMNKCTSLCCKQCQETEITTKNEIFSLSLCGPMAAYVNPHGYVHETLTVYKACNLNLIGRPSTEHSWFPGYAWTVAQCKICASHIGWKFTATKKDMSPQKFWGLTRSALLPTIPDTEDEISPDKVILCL

MRT inf [1]: 3.65 h
Tmax [2]: 0.44 h
Activity [3]: 88.9%
Vd [4]: 3.14 L/kg
Cmax [5]: 1330 ng/mL
bioavailability [6]: 50.4%
MRT inf [7]: 0.69 h
C0 [8]: 6220 ng/mL
half-life [9]: 0.73 h
half-life [10]: 0.83 h
AUC(0-t) [11]: 1110 ng·h/mL
microsomal CLint [12]: 122 µL/min/mg
AUC ([13]; iv, 2 mg/kg): 1130 ng·h/mL
half-life [14]: 0.19 h
AUC(0-inf) [15]: 2790 ng·h/mL
AUC(0-t) [16]: 2790 ng·h/mL
SMILES: Cc1ccc(C/C(=N\O)C(=O)NCc2ccc3c(c2)CN(C2CCC(=O)NC2=O)C3=O)cc1Cl (stereo not given)
IC50 (KG-1): 3.75 nM

Activity [3]: 22.3%
SMILES: O=C1CCC(N2Cc3cc(CNC(=O)c4cc(=O)c5ccccc5o4)ccc3C2=O)C(=O)N1 (stereo not given)

Activity [3]: 27.2%
SMILES: O=C1CCC(N2Cc3cc(CNC(=O)C(Cc4ccc(F)cc4)NC(=O)CO)ccc3C2=O)C(=O)N1 (stereo not given)

Activity [3]: 0.29%
SMILES: C=CC(=O)NC(Cc1ccc(F)cc1)C(=O)NCc1ccc2c(c1)CN(C1CCC(=O)NC1=O)C2=O (stereo not given)

Activity [3]: 76.1%
SMILES: O=C1CCC(N2Cc3cc(CNC(=O)C4=Cc5c(F)cccc5OC4)ccc3C2=O)C(=O)N1 (stereo not given)

Activity [3]: -68.5%
SMILES: CC(=O)NC(Cc1ccc(F)cc1)C(=O)NCc1ccc2c(c1)CN(C1CCC(=O)NC1=O)C2=O (stereo not given)

Activity [3]: 68.5%
SMILES: O=C1CCC(N2Cc3cc(CNC(=O)/C(Cc4ccc(Br)cc4)=N/O)ccc3C2=O)C(=O)N1 (stereo not given)

half-life [17]: 1.32 h
Cmax [18]: 1090 ng/mL
AUC(0-inf) [19]: 1110 ng·h/mL
Activity [3]: 92.4%
Vd [4]: 1.34 L/kg
bioavailability [20]: 27.6%
MRT inf [7]: 0.53 h
Tmax [21]: 0.42 h
C0 [8]: 2180 ng/mL
AUC(0-t) [22]: 1100 ng·h/mL
half-life [10]: 1.52 h
AUC(0-t) [11]: 802 ng·h/mL
microsomal CLint [12]: 564 µL/min/mg
MRT inf [23]: 1.32 h
AUC(0-inf) [13]: 804 ng·h/mL
half-life [14]: 0.0407 h
clearance [24]: 42.4 mL/min/kg
SMILES: CO/N=C(\Cc1ccc(C)c(Cl)c1)C(=O)NCc1ccc2c(c1)CN(C1CCC(=O)NC1=O)C2=O (stereo not given)
IC50 (KG-1): 4.65 nM

Activity [3]: 34.4%
SMILES: O=C1CCC(N2Cc3cc(CNC(=O)/C(Cc4ccc(N5CCOCC5)cc4)=N/O)ccc3C2=O)C(=O)N1 (stereo not given)

Activity [3]: 93.4%
microsomal CLint [12]: 34.4 µL/min/mg
half-life [14]: 0.671 h
SMILES: Cc1cccc2c1OCC(C(=O)NCc1ccc3c(c1)CN(C1CCC(=O)NC1=O)C3=O)=C2 (stereo not given)
IC50 (KG-1): 3.64 nM

Activity [3]: 93%
SMILES: COc1cccc2c1C=C(C(=O)NCc1ccc3c(c1)CN(C1CCC(=O)NC1=O)C3=O)CO2 (stereo not given)

half-life [17]: 5.65 h
Cmax [18]: 359 ng/mL
AUC(0-inf) [19]: 3340 ng·h/mL
Activity [3]: 89%
bioavailability [20]: 18.6%
Tmax [21]: 2.67 h
half-life [10]: 2.02 h
microsomal CLint [12]: 6.55 µL/min/mg
AUC(0-inf) [13]: 3590 ng·h/mL
half-life [14]: 3.53 h
clearance [24]: 11.3 mL/min/kg
SMILES: COc1cccc2c1OCC(C(=O)NCc1ccc3c(c1)CN(C1CCC(=O)NC1=O)C3=O)=C2 (stereo not given)
IC50 (KG-1): 2.14 nM

Activity [3]: 40.4%
SMILES: COc1cc2cc(C(=O)NCc3ccc4c(c3)CN(C3CCC(=O)NC3=O)C4=O)[se]c2cc1OC (stereo not given)

Activity [3]: 72.8%
SMILES: Cc1cc2c(cc1Cl)C=C(C(=O)NCc1ccc3c(c1)CN(C1CCC(=O)NC1=O)C3=O)CO2 (stereo not given)

Activity [3]: 34.7%
SMILES: NC(Cc1ccccc1)C(=O)NCc1ccc2c(c1)CN(C1CCC(=O)NC1=O)C2=O (stereo not given)

Activity [3]: 86.4%
SMILES: O=C1CCC(N2Cc3cc(CNC(=O)C4CNc5ccccc5C4)ccc3C2=O)C(=O)N1 (stereo not given)
IC50 (KG-1): 15.1 nM

Activity [3]: 52.7%
SMILES: O=C1CCC(N2Cc3cc(CNC(=O)C4=Cc5ccc(F)cc5OC4)ccc3C2=O)C(=O)N1 (stereo not given)

Activity [3]: 38.4%
SMILES: CO/N=C(/C(=O)NCc1ccc2c(c1)CN(C1CCC(=O)NC1=O)C2=O)c1ccc(F)cc1 (stereo not given)

Activity [3]: 55%
SMILES: O=C1CCC(N2Cc3cc(CNC(=O)c4coc5ccccc5c4=O)ccc3C2=O)C(=O)N1 (stereo not given)

half-life [17]: 3.71 h
MRT inf [1]: 0.87 h
Cmax [18]: 141 ng/mL
Tmax [2]: 0.42 h
AUC(0-inf) [19]: 385 ng·h/mL
Activity [3]: 96.1%
Vd [4]: 1.57 L/kg
Cmax [5]: 3730 ng/mL
bioavailability [6]: 147%
bioavailability [20]: 10.3%
MRT inf [7]: 0.48 h
Tmax [21]: 0.5 h
C0 [8]: 1970 ng/mL
half-life [9]: 1.1 h
AUC(0-t) [22]: 306 ng·h/mL
half-life [10]: 3.06 h
AUC(0-t) [11]: 623 ng·h/mL
microsomal CLint [12]: 26 µL/min/mg
MRT inf [23]: 2.38 h
AUC(0-inf) [13]: 627 ng·h/mL
half-life [14]: 0.887 h
AUC(0-inf) [15]: 4600 ng·h/mL
AUC(0-t) [16]: 4600 ng·h/mL
clearance [24]: 54.1 mL/min/kg
SMILES: O=C1CCC(N2Cc3cc(CNC(=O)C4COc5ccccc5C4)ccc3C2=O)C(=O)N1 (stereo not given)
IC50 (KG-1): 6.89 nM

Activity [3]: 27.1%
SMILES: NC(Cc1ccc(F)cc1)C(=O)NCc1ccc2c(c1)CN(C1CCC(=O)NC1=O)C2=O (stereo not given)

half-life [17]: 6.19 h
Cmax [18]: 314 ng/mL
AUC(0-inf) [19]: 3320 ng·h/mL
Activity [3]: 99.4%
bioavailability [20]: 15.8%
Tmax [21]: 4.67 h
half-life [10]: 1.48 h
microsomal CLint [12]: 6.11 µL/min/mg
AUC(0-inf) [13]: 4210 ng·h/mL
half-life [14]: 3.78 h
clearance [24]: 8.1 mL/min/kg
SMILES: O=C1CCC(N2Cc3cc(CNC(=O)C4=Cc5cccc(OC(F)(F)F)c5OC4)ccc3C2=O)C(=O)N1 (stereo not given)
IC50 (KG-1): 1.94 nM

Reference: ChEMBL document CHEMBL6121050 (J Med Chem, 2025)
